Measurements from patent US20220002359A1, “Voltage-Gated Calcium Channel Auxilliary Subunit Alpha 2 Delta and Uses Thereof” (Novassay, S.A., priority 2017, published 2022).
Where two headings read alike, the source gives them in different places.

Experiments:
[1] = biological target: T1, α2δ-1 recombinant peptide (SEQ ID No. 5) comprising the VGCC_α2 domain (Homo sapiens, UniProt P54289); test: SPR binding to immobilized α2δ-1 recombinant peptide; conditions: RU400, subtracted from BSA reference; 0.5-2 mM
T1 construct: purchased CUSABIO CSB-YP004407HU; host or cells: yeast
Text: The α2δ-1 recombinant peptide comprising the VGGC_α2 domain and containing a single cysteine near the carboxy terminus, was immobilized on the surface of a Biacore CM5 optical sensor chip using the Biacore Thiol Coupling Kit following the covalent thiol coupling chemistry. This immobilization process provides a sterically more uniform attachment of the ligand molecules to the sensor chip surface than the randomized amine coupling procedure. Bovine serum albumin (BSA) was immobilized to the reference flow cell FC1 as intra-assay background binding control. Compound NVA1309 was injected as analyte at increasing concentrations and the binding reaction was monitored by generation of real time sensorgrams, presented as subtracted curves from the BSA reference (see […]).
Sensorgram running conditions were: • Compound stock solution: 50 mM, Dimethyl sulfoxide (DMSO) DMSO • Compound working dilution: 0.5-2 mM • Running buffer: HBS-P • Flow rate: 30 μl/min

[2] = biological target: T2, α2δ-1 recombinant peptide (SEQ ID No. 5) containing the VGCC_α2 domain (Homo sapiens, UniProt P54289); conditions: Langmuir 1:1 fit, single concentration data
Method: (§1) The equilibrium dissociation constant KD=kd/ka was calculated and provides a single concentration estimate of the compound target binding affinity.

[3] = biological target: T3, Peptide P3 (SEQ ID No. 6), carboxy terminal region of the VGGC_α2 domain of α2δ-1 (Homo sapiens, UniProt P54289); test: SPR binding to immobilized synthetic peptide P3; conditions: RU400, subtracted from blank dextran reference; 0.5-2 mM
T3 construct: three glycines and a terminal cysteine (Peptide 3); made in house; host or cells: chemical synthesis
Text: A synthetic peptide was constructed, representing the carboxy terminal of the VGGC_α2 domain of α2δ-1, carboxy-terminally fused to a flexible spacer consisting of three glycines and a terminal cysteine (Peptide 3; SEQ ID No. 6):
This peptide was covalently coupled via the carboxy-terminal cysteine to the surface (FC2) of a Biacore CM5 optical sensor chip using the Biacore Thiol Coupling Kit following the Biacore thiol coupling procedure. This strategy allows for uniform surface presentation of the immobilized peptide molecules and provides freedom to adopt a steric conformation determined by the amino acid sequence of the peptide. Compound NVA1309 was injected as analyte at increasing concentrations and the binding reaction was monitored by generation of real time sensorgrams, presented as subtracted curves from the blank FC1 dextran reference surface (see FIG. 13A).
Sensorgram running conditions were: • Compound stock solution: 50 mM, Dimethyl sulfoxide (DMSO) DMSO • Compound working dilution: 0.5-2 mM • Running buffer: HBS-P (Biacore) • Flow rate: 30 μl/min

[4] = biological target: T2, α2δ-1 recombinant peptide (SEQ ID No. 5) containing the VGCC_α2 domain; test: biochemical
Method: as §1

[5] = biological target: truncated recombinant α2δ-1 protein, Construct 1 (SEQ ID No. 2) (Homo sapiens, UniProt P54289); test: SPR binding of analyte to immobilized truncated α2δ-1 construct 1; conditions: RU400, subtracted from human IgG reference; NVA1309 at increasing concentrations, pregabalin at 500 μM
[6] = biological target: T4, truncated recombinant α2δ-1 protein, Construct 2 (SEQ ID No. 3) (Homo sapiens, UniProt P54289); test: SPR binding of analyte to immobilized truncated α2δ-1 construct 2; conditions: RU400, subtracted from human IgG reference; NVA1309 at increasing concentrations, pregabalin at 500 μM
T4 construct: His tag; GST; made in house; host or cells: CHO cells (transient expression)
Method: Binding experiments were carried out using Surface Plasmon Resonance (SPR) technology in a Biacore instrument. Recombinant construct 1 and construct 2 were immobilized on the surface of two different flow cells (FC2 and FC3, respectively) of a Biacore CM5 optical sensor chip by covalent amine coupling chemistry, using the Biacore amine coupling kit and following the Biacore amine coupling protocol. Human IgG was immobilized to the reference flow cell FC1 as intra-assay background binding control.

[7] = biological target: human voltage-gated calcium channel subunit α2δ-1 (Homo sapiens, UniProt P54289)
[8] = biological target: Peptide 1 (P1; SEQ ID No. 4) comprising the gabapentin/pregabalin binding site of α2δ-1 (Homo sapiens, UniProt P54289); test: SPR binding to immobilized synthetic peptide P1; conditions: RU400, subtracted from blank dextran reference
Method: Thiol coupling allows for uniform surface presentation of the immobilized peptide molecules and provides freedom to adopt a steric conformation that is determined by the amino acid sequence of the peptide.
Sensorgram running conditions were: • Compound stock solution: 50 mM, DMSO • Compound working stock dilution: 0.5-2 mM • Running buffer: HBS-P • Flow rate: 30 μl/min

[9] = biological target: T5, α2δ-1 (RRR mutated to RRA) (Mus musculus, UniProt O08532, R241A); conditions: knock-in mutant mouse; cited from earlier work
T5 construct: host or cells: knock-in mutant mouse (in vivo)

α2δ-1 = conditions: partial sciatic ligation neuropathy, α2δ-1−/− mice; cited from earlier work
[10] = SPR binding of NVA1309 to immobilized P4-derived peptides, RU400 as % of peptide P4; conditions: for % BINDING (RU400) 0.5 mM: NVA1309 0.5 mM; for % BINDING (RU400) 1 mM: NVA1309 1 mM; for % BINDING (RU400) 2 mM: NVA1309 2 mM; for NVA1309 binding to the peptide, in words: compared with peptide P4; for % BINDING (RU400) mean: mean of 0.5, 1 and 2 mM NVA1309
Method: This peptide was covalently coupled via the carboxy-terminal cysteine to the surface (FC2) of a Biacore CM5 optical sensor chip as described in Example 4 following the Biacore thiol coupling procedure. Compound NVA1309 was injected as analyte at increasing concentrations and the binding reaction was monitored by generation of real time sensorgrams, presented as subtracted curves from the blank FC1 dextran reference surface (FIGS. 14A & 14B).
Sensorgram running conditions were: • Compound stock solution: 50 mM, Dimethyl sulfoxide (DMSO) • Compound working dilution: 0.5-2 mM • Running buffer: HBS-P • Flow rate: 30 μl/min
This peptide was covalently coupled via the carboxy-terminal cysteine to the surface (FC3) of a new Biacore CM5 optical sensor chip using the Biacore thiol coupling procedure. Peptide P4 was immobilized on FC2 as a positive reference control, flow cell FC1 was left blank as negative background binding reference. Compound NVA1309 was injected as analyte at increasing concentrations and the binding reaction was monitored by generation of real time sensorgrams as described in the previous examples and presented as subtracted curves from the blank FC1 dextran reference surface.
A series of three concentration SPR binding experiments were carried out with peptides derived from the peptide P4 sequence (SEQ ID No. 7). These peptides were designed in order to determine the significance of single peptide 4-contained (P4) amino acid residues in binding compound NVA1309. The following peptides were prepared:
Synthetic peptides were covalently coupled to optical sensor chips via the terminal cysteines following the Biacore thiol coupling procedure and SPR binding experiments were run exactly under the same conditions as described in the previous examples. Relative binding strengths of the single peptides were read from three concentration RU400 values and calculated as percentage binding of the peptide P4 reference (P4: RU400=100%). […]

[11] = P4 RU400=100%, P4 scanning (Example 6)

T2 sequence (P54289 528-668): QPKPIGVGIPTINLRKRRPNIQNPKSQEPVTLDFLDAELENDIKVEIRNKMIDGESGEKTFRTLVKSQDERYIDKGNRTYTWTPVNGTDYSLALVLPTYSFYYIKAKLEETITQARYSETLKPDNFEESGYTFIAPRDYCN
truncated recombinant α2δ-1 protein, Construct 1 (SEQ ID No. 2), sequence (P54289 with tags, fused parts or gaps): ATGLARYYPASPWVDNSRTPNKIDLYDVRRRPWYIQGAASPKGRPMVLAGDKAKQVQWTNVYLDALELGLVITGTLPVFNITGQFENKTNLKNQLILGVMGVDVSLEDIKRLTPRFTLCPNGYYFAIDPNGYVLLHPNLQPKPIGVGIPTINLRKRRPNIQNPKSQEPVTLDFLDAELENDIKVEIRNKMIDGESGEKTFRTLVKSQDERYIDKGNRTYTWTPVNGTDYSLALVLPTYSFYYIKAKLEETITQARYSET
Peptide 1 (P1; SEQ ID No. 4) comprising the gabapentin/pregabalin binding site of α2δ-1, sequence (P54289 with tags, fused parts or gaps limits assumed): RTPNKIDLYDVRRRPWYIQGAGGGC
human voltage-gated calcium channel subunit α2δ-1, sequence (P54289 25-1103): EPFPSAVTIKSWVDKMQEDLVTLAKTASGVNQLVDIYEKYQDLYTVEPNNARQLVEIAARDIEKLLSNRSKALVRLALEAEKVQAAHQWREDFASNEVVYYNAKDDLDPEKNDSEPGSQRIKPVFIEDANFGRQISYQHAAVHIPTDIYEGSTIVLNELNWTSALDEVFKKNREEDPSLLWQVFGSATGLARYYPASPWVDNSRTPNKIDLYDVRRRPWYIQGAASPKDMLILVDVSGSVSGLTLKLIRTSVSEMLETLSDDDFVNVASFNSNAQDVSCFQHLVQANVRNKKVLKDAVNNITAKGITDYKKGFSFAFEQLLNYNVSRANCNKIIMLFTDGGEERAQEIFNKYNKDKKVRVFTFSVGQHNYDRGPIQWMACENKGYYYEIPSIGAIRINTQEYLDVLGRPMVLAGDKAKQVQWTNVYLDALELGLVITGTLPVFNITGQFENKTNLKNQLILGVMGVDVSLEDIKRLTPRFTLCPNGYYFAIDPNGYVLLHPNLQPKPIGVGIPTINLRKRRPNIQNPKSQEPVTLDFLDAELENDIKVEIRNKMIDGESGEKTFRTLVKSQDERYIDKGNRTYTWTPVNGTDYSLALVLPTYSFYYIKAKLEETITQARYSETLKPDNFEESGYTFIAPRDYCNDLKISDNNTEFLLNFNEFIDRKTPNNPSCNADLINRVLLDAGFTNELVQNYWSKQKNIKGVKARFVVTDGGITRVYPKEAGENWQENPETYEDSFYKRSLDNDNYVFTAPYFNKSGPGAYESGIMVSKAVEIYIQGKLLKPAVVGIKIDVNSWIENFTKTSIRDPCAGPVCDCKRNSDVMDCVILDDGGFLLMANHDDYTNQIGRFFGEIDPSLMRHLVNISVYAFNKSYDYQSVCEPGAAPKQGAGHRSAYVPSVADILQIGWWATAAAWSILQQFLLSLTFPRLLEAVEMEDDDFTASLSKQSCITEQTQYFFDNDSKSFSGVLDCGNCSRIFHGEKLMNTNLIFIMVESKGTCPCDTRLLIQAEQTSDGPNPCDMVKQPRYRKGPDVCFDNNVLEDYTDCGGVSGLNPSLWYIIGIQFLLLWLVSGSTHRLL
T4 sequence (P54289 with tags, fused parts or gaps): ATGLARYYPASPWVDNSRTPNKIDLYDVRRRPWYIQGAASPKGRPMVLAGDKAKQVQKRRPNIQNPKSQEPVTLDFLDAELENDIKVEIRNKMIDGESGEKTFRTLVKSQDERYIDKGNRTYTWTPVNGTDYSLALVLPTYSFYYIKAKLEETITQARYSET
T3 sequence (P54289 with tags, fused parts or gaps limits assumed): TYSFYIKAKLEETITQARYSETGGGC
T5 sequence (O08532 25-1103 R241A): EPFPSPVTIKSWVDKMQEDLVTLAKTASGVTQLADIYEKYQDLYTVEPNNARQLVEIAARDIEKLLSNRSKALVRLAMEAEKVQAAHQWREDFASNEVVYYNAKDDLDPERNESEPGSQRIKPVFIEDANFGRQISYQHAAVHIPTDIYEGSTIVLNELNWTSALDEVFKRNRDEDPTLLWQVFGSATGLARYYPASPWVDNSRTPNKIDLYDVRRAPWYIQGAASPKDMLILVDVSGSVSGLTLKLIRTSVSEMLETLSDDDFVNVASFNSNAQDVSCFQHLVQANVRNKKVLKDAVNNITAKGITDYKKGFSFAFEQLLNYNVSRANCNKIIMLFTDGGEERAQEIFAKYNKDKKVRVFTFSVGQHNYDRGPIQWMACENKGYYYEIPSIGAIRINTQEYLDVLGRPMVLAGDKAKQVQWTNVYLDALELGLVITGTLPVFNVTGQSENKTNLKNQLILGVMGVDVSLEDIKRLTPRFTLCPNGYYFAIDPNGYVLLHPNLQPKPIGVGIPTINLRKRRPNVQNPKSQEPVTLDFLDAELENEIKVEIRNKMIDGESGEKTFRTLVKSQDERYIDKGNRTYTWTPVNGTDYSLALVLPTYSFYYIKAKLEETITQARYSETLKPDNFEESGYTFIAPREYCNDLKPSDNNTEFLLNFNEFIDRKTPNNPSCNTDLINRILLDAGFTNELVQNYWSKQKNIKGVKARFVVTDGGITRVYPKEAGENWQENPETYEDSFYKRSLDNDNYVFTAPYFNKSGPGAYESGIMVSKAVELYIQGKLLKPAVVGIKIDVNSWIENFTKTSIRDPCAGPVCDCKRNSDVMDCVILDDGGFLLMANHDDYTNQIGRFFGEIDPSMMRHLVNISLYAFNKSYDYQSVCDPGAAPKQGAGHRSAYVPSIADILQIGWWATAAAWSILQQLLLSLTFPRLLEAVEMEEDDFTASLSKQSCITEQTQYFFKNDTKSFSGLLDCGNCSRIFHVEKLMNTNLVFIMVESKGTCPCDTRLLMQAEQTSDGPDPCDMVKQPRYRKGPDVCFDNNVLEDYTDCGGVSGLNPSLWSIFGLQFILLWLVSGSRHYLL
T5 sequence (O08532 958-1103 partner limits assumed): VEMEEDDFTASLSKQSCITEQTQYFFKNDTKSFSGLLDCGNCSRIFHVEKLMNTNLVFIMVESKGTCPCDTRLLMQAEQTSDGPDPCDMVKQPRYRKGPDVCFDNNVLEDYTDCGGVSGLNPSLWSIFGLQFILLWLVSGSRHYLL
T1 sequence (P54289 528-668): as the sequence (P54289 528-668) above

Row | Molecule | % BINDING (RU400) 0.5 mM [10, 11] | % BINDING (RU400) 1 mM [10, 11] | % BINDING (RU400) 2 mM [10, 11] | % BINDING (RU400) mean ([10]; P4=100%, Example 6) | % BINDING (RU400) 0.5 mM ([10]; P4=100%, Example 7) | % BINDING (RU400) 1 mM ([10]; P4=100%, Example 7) | % BINDING (RU400) 2 mM ([10]; P4=100%, Example 7) | % BINDING (RU400) mean ([10]; P4=100%, Example 7) | other results
1 | CCC1=C[C@@H]2[C@H](C1)C[C@]2(CN)Cc1nnn[nH]1 [NVA1309, [(1R,5S,6S)-3-Ethyl-6-(1H-tetrazol-5-ylmethyl)-6-bicyclo[3.2.0]hept-3-enyl]methanamine] |  |  |  |  |  |  |  |  | SPR binding to immobilized α2δ-1 recombinant peptide [1]: concentration-dependent binding; kd [2]: 0.00061 s⁻¹; SPR binding to immobilized peptide P3 [3]: concentration dependent binding; Kd [4]: 33.8 nM; kon ([4]; read-out: ka): 18000 M⁻¹ s⁻¹; SPR binding to immobilized construct 1 [5]: concentration-dependent binding; SPR binding to immobilized construct 2 [6]: concentration-dependent binding; IC50 ([7]; recombinant membranes over-expressing the human α2δ-1 subunit (PCT/EP2014/077937); read-out: IC50 of binding; cited from earlier work): 2.1 nM; SPR binding to immobilized peptide P1 [8]: concentration-dependent binding
2 | CC(C)C[C@H](CN)CC(=O)O [Pregabalin, reference compound] |  |  |  |  |  |  |  |  | alleviating chronic pain resulting from nerve injury [9]: no longer effective; ability to alleviate mechanical hypersensitivity (α2δ-1): lost; SPR binding to immobilized construct 1 [5]: lack of pregabalin binding; SPR binding to immobilized construct 2 [6]: lack of pregabalin binding; IC50 ([7]; read-out: IC50 of binding; recombinant membranes over-expressing the human α2δ-1 subunit (PCT/EP2014/077937); cited from earlier work): 23 nM; SPR binding to immobilized peptide P1 [8]: no positive SPR signal
3 | AQTITEELKAKIGGGC (Peptide P8, Inverse peptide P4 + GGGC anchor) | 3% | 2% | 2% | 2.3% |  |  |  |  | NVA1309 binding to the peptide, in words [10]: lack of binding
4 | ETITQARYSETLKPGGGC (Peptide P6, carboxy-terminal VGGC_a2 region (IV) + GGGC anchor) [C-terminal P4 extension + GGGC anchor] | 9% | 7% | 9% | 8.3% |  |  |  |  | NVA1309 binding to the peptide, in words [10]: significant loss of NVA1309 binding capacity
5 | IAAALEETITQAGGGC (Peptide P10, P4 analogue - positively charged side chains A-substituted + GGGC anchor) | 4% | 4% | 4% | 4% |  |  |  |  | 
6 | IAAKLEETITQAGGGC (Peptide P13, P4 analogue with Lysine in position 2 (K) substituted by Alanine (A) + GGGC anchor) [P4 analogue, K2 A-substituted + GGGC anchor] |  |  |  |  | 133% | 88% | 90% | 104% | 
7 | IKAALEETITQAGGGC (Peptide P14, P4 analogue with Lysine in position 4 (K) substituted by Alanine (A) + GGGC anchor) [P4 analogue, K4 A-substituted + GGGC anchor] |  |  |  |  | 0% | 11% | 6% | 6% | 
8 | IKAKGGGC (Peptide P15, P4 analogue containing only the amino-terminal part of P4 + GGGC anchor) |  |  |  |  | 19% | 25% | 26% | 23% | 
9 | IKAKLAATITQAGGGC (Peptide P11, P4 analogue - negatively charged side chains A-substituted + GGGC anchor) | 23% | 22% | 25% | 23.3% |  |  |  |  | 
10 | IKAKLEEAIAQAGGGC (Peptide P12, P4 analogue - polar side chains A-substituted + GGGC anchor) | 14% | 15% | 17% | 15.3% |  |  |  |  | 
11 | IKAKLEETITQAGGGC (Peptide P4, carboxy-terminal VGGC_a2 region (II) + GGGC anchor) [carboxy-terminal VGGC_α2 region (II) + GGGC anchor, positive control] | 100% | 100% | 100% | 100% | 100% | 100% | 100% | 100% | 
12 | LRVRIDDSLSNVGGGC (Peptide P9, P4 analogue - all aa substituted by most similar ones + GGGC anchor) | 1% | 1% | 2% | 1.3% |  |  |  |  | 
